From US4207311A, “Peptides having analgesic and thermoregulative properties” (The Salk Institute for Biological Studies, priority 1977, dated 1980) come the findings set out here.

For this assay, the system named is cold exposed rat. The assay can be described thus: hypothermia in cold exposed rats after intracisternal injection (rectal/core temperature). In kind it is in vivo. Here is the method:
Male Sprague-Dawley-CV rats weighing 180-200 grams were housed in temperature and humidity controlled quarters. The rats were fed a standard rat food ration and tap water ad libitum. After being anesthetized with ether, peptides were injected into the cisterna magna of each rat. Ten microliters of a peptide solution containing 1-1000 nanograms of the peptide were injected. Immediately following the injections, the animals were transferred to a cold room maintained at 4° C. Rectal temperatures were recorded with a thermo probe at 30 minute intervals following injection. All experiments were carried out in a randomized block design. Following analyses of variance, differences between the effect of the various peptides were determined. The peptides were dissolved in a buffer composed of 126 mM, NaCl, 6 mM KCl, 1 mM NaH2 PO4, 0.88 mM MgSo4, 1.45 mM CaCl2, and 25 mM HEPES pH 7.2.
Other peptides isolated from anuran skin, i.e., litorin, ranatensin and alytesin, are approximately 1%, 10% and 100% respectively as potent as the peptide described above to lower body temperature of the cold exposed rat.

Square brackets hold non-standard residues; d marks the D form. Peptide text beside a SMILES is read from it. pGlu = O=C1CC[C@@H](C(=O)O)N1

On to `CSCC[C@H](NC(=O)[C@H](CC(C)C)NC(=O)[C@H](Cc1cnc[nH]1)NC(=O)CNC(=O)[C@@H](NC(=O)[C@H](C)NC(=O)[C@H](Cc1c[nH]c2ccccc12)NC(=O)[C@H](CCC(N)=O)NC(=O)[C@H](CC(N)=O)NC(=O)CNC(=O)[C@H](CC(C)C)NC(=O)[C@H](CCCN=C(N)N)NC(=O)[C@H](CCC(N)=O)NC(=O)[C@@H]1CCC(=O)N1)C(C)C)C(N)=O` [the peptide of the invention], for which the “potency relative to Neurotensin to produce hypothermia” value (cold exposed rat (4° C.), graded doses, core temperature 60 minutes following administration) was “at least 10^4 times”.

Regarding `CSCC[C@H](NC(=O)[C@H](Cc1ccccc1)NC(=O)[C@H](Cc1c[nH]cn1)NC(=O)CNC(=O)[C@@H](NC(=O)[C@H](C)NC(=O)[C@H](Cc1c[nH]c2ccccc12)NC(=O)[C@H](CCC(N)=O)NC(=O)[C@@H]1CCCN1C(=O)[C@@H](NC(=O)[C@@H]1CCC(=O)N1)C(C)C)C(C)C)C(N)=O` [ranatensin] ([pGlu]VPQWAVGHFM-NH2), the “potency relative to the peptide of Example I to lower body temperature” value (cold exposed rat) is approximately 10%.
